Format in all cases: in vivo
Data set [1] deals with LPS induced zebrafish sepsis model. As to the kind of experiment: Survival in LPS induced zebrafish sepsis model. To be noted: comparison of UNC0642 and A366, zebrafish larvae, 27 μg/ml LPS, 24 h. The protocol:
(§1) An LPS induced zebrafish sepsis model which mimics the hallmarks of human sepsis was developed (Philip et al., 2017). Zebrafish show varied susceptibility and responsiveness to LPS from different bacterial strains. Exposure of zebrafish larvae at 3 days post-fertilization (dpf) to two types of LPS (LPS from Escherichia coli 0111:B4 (Sigma) at 100 μg/ml for 5-6 hrs; or LPS from Salmonella at 27 μg/ml for 24 hrs) were both effective in inducing tail fin swelling, increased ROS production, increased vascular leakage and increased mortality.
Survival analyses for zebrafish (wildtype) exposed to various concentrations of LPS (Escherichia coli 0111:B4; Sigma) was performed. 3 dpf larvae were exposed to LPS by immersion technique. Larvae were treated with 10, 25, 50, 125, 250, 500, 1000, 2500, 5000 or 10000 nM UNC0642 along with 100 μg/ml LPS (LPS was dissolved in eggwater), by static immersion at 28.5° C. for 24 h in a total volume of 2 mL per treatment. Control larvae were exposed to egg water. Survival numbers were recorded and EC50s calculated.
(§2) 3 dpf larvae were exposed to LPS by immersion technique. […] Control larvae were exposed to egg water. Survival numbers were recorded and EC50s calculated. The percentage (%) of embryos showing vascular leakage was also recorded and 1050s calculated.

Data set [2] deals with LPS-induced vascular leakage. Briefly: Vascular leakage (leaked red blood cells in tailfin) in LPS-treated zebrafish larvae. To be noted: comparison of UNC0642 and A366, zebrafish larvae, 27 μg/ml LPS, 24 h. The procedure:
as §1
3 dpf Tg (flk1:GFP; gata-1:Dsred) double transgenic larvae were exposed to Vehicle, LPS (100 μg/ml) or LPS+1 μM UNC0642 by static immersion for 6 h at 28.5° C. to induce endothe-lial dysfunction and the resulting leakage of red blood cells. The larvae were then imaged using a Leica fluorescence microscope (Leica Microsystems, Wetzlar, Germany). Red blood cells that leaked out into the tailfin region were quantified.
as §2

Data set [3] concerns zebrafish larvae. As to the kind of experiment: Toxicity in zebrafish larvae. To be noted: 3 dpf larvae, observed daily for 72 hours post incubation. The text has this: Parameters of developmental toxicity (organ size and shape), cardiac toxicity (cardiac edema and heart rate), neuromuscular toxicity (touch response) and finally death were investigated.

For `COc1cc2c(cc1OCCCN1CCCC1)N=C(N)C21CCC1` [A366, 5-Methoxy-6′-[3-(1-pyrrolidinyl)propoxy]spiro[cyclobutane-1,3′-[3H]indol]-2′-amine], the “Rescue of sepsis-associated mortality” value in data set [1] is “able to rescue”. The “Rescue of sepsis-associated vascular leakage” value in data set [2] is given as “able to rescue”. Besides, the “Concentration below which non-toxic to zebrafish embryos” value in data set [3] was “below 2.5 mM”.

The values are drawn from patent US11998549B2, “Methods of treating a vascular leakage-associated disease or disorder” (UNITY HEALTH TORONTO, priority 2019, dated 2024).
